Patent publication US8680269B2, “Pesticidal compositions” (Dow AgroSciences, LLC., priority 2009, dated 2014)

What was measured:
Type in all cases: in vivo
[1] = system: corn earworm (CEW; Helicoverpa zea); experiment: Insecticidal test for corn earworm, 128-well diet tray assay; settings: 144 h, 50 μg/cm2 on artificial diet, second instar larvae, six days at 25° C.
Method: (§1) Bioassays on corn earworm (CEW; Helicoverpa zea: Lepidoptera) were conducted using a 128-well diet tray assay. Three to five second instar CEW larvae were placed in each well (3 mL) of the diet tray that had been previously filled with 1 mL of artificial diet to which 50 μg/cm^2 of the test compound (dissolved in 50 μL of 90:10 acetone-water mixture) had been applied (to each of eight wells) and then allowed to dry. Trays were covered with a clear self-adhesive cover, and held at 25° C., 14:10 light-dark for six days. Percent mortality was recorded for the larvae in each well; activity in the eight wells was then averaged.

[2] = system: beet armyworm (BAW; Spodoptera exigua); experiment: Insecticidal test for beet armyworm, 128-well diet tray assay; settings: 144 h, 50 μg/cm2 on artificial diet, second instar larvae, six days at 25° C.
Method: as §1, with “beet armyworm (BAW; Spodoptera exigua:” for “corn earworm (CEW; Helicoverpa zea:”, “BAW” for “CEW”

[3] = system: green peach aphid (Myzus persicae); experiment: Insecticidal test for green peach aphid in foliar spray assay; settings: 72 h, 200 ppm foliar spray on cabbage seedlings, graded after three days, Abbott corrected % control, read-out: Mortality GPA 200 ppm
Method: Cabbage seedlings grown in 3-inch pots, with 2-3 small (3-5 cm) true leaves, were used as test substrate. The seedlings were infested with 20-50 green peach aphids (wingless adult and nymph) one day prior to chemical application. Four pots with individual seedlings were used for each treatment. Compounds (2 mg) were dissolved in 2 mL of acetone/methanol (1:1) solvent, forming stock solutions of 1000 ppm. The stock solutions were diluted 5× with 0.025% Tween 20 in H2O to obtain the test solution at 200 ppm. A hand-held Devilbiss sprayer was used for spraying a solution to both sides of cabbage leaves until runoff. Reference plants (solvent check) were sprayed with the diluent only. Treated plants were held in a holding room for three days at approximately 25° C. and 40% relative humidity (RH) prior to grading. Evaluation was conducted by counting the number of live aphids per plant under a microscope. Insecticidal activity data, measured by using Abbott's correction formula, are presented in Table 2: Corrected % Control=100*(X−Y)/X • where X=No. of live aphids on solvent check plants • Y=No. of live aphids on treated plants

Compound | mortality at 50 µg/cm2 [1] | mortality at 50 µg/cm2 [2] | mortality at 200 ppm [3]
FC(F)(F)C(F)(F)Oc1ccc(-n2cnc(-c3ccc(/C=N/NC(=S)NCCc4ccccn4)cc3)n2)cc1 [Compound 9] | 50 to 100% | 50 to 100% | < 80%
COc1ccc(NC(=S)N/N=C/c2ccc(-c3ncn(-c4ccc(OC(F)(F)F)cc4)n3)cc2)c(C)c1 [Compound 46] | 50 to 100% | 50 to 100% | < 80%
CC(=O)N(C)c1ccc(NC(=S)N/N=C/c2ccc(-c3ncn(-c4ccc(OC(F)(F)F)cc4)n3)cc2)cc1 [Compound 40] | 50 to 100% | 50 to 100% | < 80%
COc1ccc(NC(=S)N/N=C/c2ccc(-n3cnc(-c4ccc(C(F)(F)F)cc4)c3)cc2)cc1 [Compound 69] | 50 to 100% | 50 to 100% | < 80%
CC(=O)Nc1cccc(NC(=S)N/N=C/c2ccc(-c3ncn(-c4ccc(OC(F)(F)F)cc4)n3)cc2)n1 [Compound 44] | < 50% | < 50% | < 80%
CN(C)c1ccccc1CNC(=S)N/N=C/c1ccc(-c2ncn(-c3ccc(OC(F)(F)F)cc3)n2)cc1 [Compound 39] | 50 to 100% | 50 to 100% | < 80%
CS(=O)(=O)c1ccccc1NC(=S)N/N=C/c1ccc(-c2ncn(-c3ccc(OC(F)(F)F)cc3)n2)cc1 [Compound 52] | 50 to 100% | 50 to 100% | < 80%
FC(F)(F)Oc1ccc(NC(=S)N/N=C/c2ccc(-c3ncn(-c4ccc(OC(F)(F)F)cc4)n3)cc2)cc1 [Compound 26] | 50 to 100% | 50 to 100% | < 80%
FC(F)(F)Oc1ccc(-n2cnc(-c3ccc(/C=N/NC(=S)Nc4ccc(C(F)(F)F)cc4)cc3)n2)cc1 [Compound 32] | < 50% | < 50% | < 80%
COc1cc(C)c(NC(=S)N/N=C/c2ccc(-c3ncn(-c4ccc(C(F)(F)F)cc4)n3)cc2)c(C)c1 [Compound 127] | 50 to 100% | 50 to 100% | < 80%
FC(F)(F)Oc1ccc(-n2cnc(-c3ccc(/C=N/NC(=S)NC4CCCCC4)cc3)n2)cc1 [Compound 25] | 50 to 100% | 50 to 100% | < 80%
FC(F)(F)Oc1ccc(-n2cnc(-c3ccc(/C=N/NC(=S)Nc4ccc(Cl)cc4)cc3)n2)cc1 [Compound 56] | 50 to 100% | 50 to 100% | < 80%
COc1ccc(NC(=S)N/N=C/c2ccc(-c3ncn(-c4ccc(OC(F)(F)F)cc4)n3)cc2)c(OC)c1 [Compound 45] | 50 to 100% | 50 to 100% | < 80%
Fc1cccc(Cl)c1NC(=S)N/N=C/c1ccc(-c2ncn(-c3ccc(OC(F)(F)F)cc3)n2)cc1 [Compound 63] | 50 to 100% | 50 to 100% | < 80%
Cc1cccc(Cl)c1NC(=S)N/N=C/c1ccc(-c2ncn(-c3ccc(OC(F)(F)F)cc3)n2)cc1 [Compound 65] | 50 to 100% | 50 to 100% | < 80%
FC(F)(F)c1ccc(-c2cn(-c3ccc(/C=N/NC(=S)Nc4c(Cl)cccc4Cl)cc3)cn2)cc1 [Compound 70] | 50 to 100% | 50 to 100% | < 80%
CNC(=S)N/N=C/c1ccc(-c2ncn(-c3ccc(OC(F)(F)F)cc3)n2)cc1 [Compound 13] | 50 to 100% | 50 to 100% | < 80%
Cc1ccc(Cl)c(C)c1NC(=S)N/N=C/c1ccc(-c2ncn(-c3ccc(OC(F)(F)F)cc3)n2)cc1 [Compound 101] | 50 to 100% | 50 to 100% | 

Compound | mortality at 50 µg/cm2 [1] | mortality at 50 µg/cm2 [2] | mortality at 200 ppm [3]
COc1ccc(NC(=S)N/N=C/c2ccc(-c3ncn(-c4ccc(OC(F)(F)C(F)(F)F)cc4)n3)cc2)c(C)c1 [Compound 122] | 50 to 100% | 50 to 100% | 
CCCN(/N=C/c1ccc(-c2ncn(-c3ccc(OC(F)(F)F)cc3)n2)cc1)C(=S)Nc1ccc(OC)cc1C [Compound 87] | < 50% | < 50% | 
COc1cc(C)ccc1NC(=S)N/N=C/c1ccc(-c2ncn(-c3ccc(OC(F)(F)F)cc3)n2)cc1 [Compound 117] | 50 to 100% | 50 to 100% | 
FC(F)(F)Oc1ccc(-n2cnc(-c3ccc(/C=N/NC(=S)NC4CCc5ccccc54)cc3)n2)cc1 (centres unmarked) [Compound 145] | 50 to 100% | 50 to 100% | 
Cc1ccc(NC(=S)N/N=C/c2ccc(-c3ncn(-c4ccc(OC(F)(F)F)cc4)n3)cc2)c(C(C)C)c1 [Compound 96] | 50 to 100% | 50 to 100% | 
COCc1ccc(C(C)NC(=S)N/N=C/c2ccc(-c3ncn(-c4ccc(OC(F)(F)F)cc4)n3)cc2)cc1 (centres unmarked) [Compound 157] | 50 to 100% | 50 to 100% | 
CC(NC(=S)N/N=C/c1ccc(-c2ncn(-c3ccc(OC(F)(F)F)cc3)n2)cc1)c1ccsc1 (centres unmarked) [Compound 155] | 50 to 100% | 50 to 100% | 
FC(F)(F)Oc1ccc(-n2cnc(-c3ccc(/C=N/NC(=S)Nc4ncc(Cl)cc4Cl)cc3)n2)cc1 [Compound 113] | < 50% | < 50% | 
COc1cc(Cl)c(NC(=S)N/N=C/c2ccc(-c3ncn(-c4ccc(OC(F)(F)F)cc4)n3)cc2)c(Cl)c1 [Compound 115] | 50 to 100% | 50 to 100% | 
COC(=O)C1CC(c2ccc(/C=N/NC(=S)Nc3c(Cl)cccc3Cl)cc2)=NN1c1ccc(OC(F)(F)F)cc1 (centres unmarked) [Compound 131] | 50 to 100% | 50 to 100% | 
COc1ccc(C(C)NC(=S)N/N=C/c2ccc(-c3ncn(-c4ccc(OC(F)(F)F)cc4)n3)cc2)cc1OC (centres unmarked) [Compound 151] | 50 to 100% | 50 to 100% | 
COc1cc(F)c(NC(=S)N/N=C/c2ccc(-c3ncn(-c4ccc(OC(F)(F)F)cc4)n3)cc2)c(F)c1 [Compound 108] | 50 to 100% | 50 to 100% | 
COC(=O)C1CC(c2ccc(/C=N/NC(=S)Nc3c(C)cccc3C)cc2)=NN1c1ccc(OC(F)(F)F)cc1 (centres unmarked) [Compound 130] | 50 to 100% | 50 to 100% | 
Cc1cc(Cl)cc(C)c1NC(=S)N/N=C/c1ccc(-c2ncn(-c3ccc(OC(F)(F)F)cc3)n2)cc1 [Compound 114] | 50 to 100% | 50 to 100% | 
COC(=O)c1ccccc1NC(=S)N/N=C/c1ccc(-c2ncn(-c3ccc(OC(F)(F)F)cc3)n2)cc1 [Compound 84] | < 50% | < 50% | 
CC(C)c1ccccc1NC(=S)N/N=C/c1ccc(-c2ncn(-c3ccc(OC(F)(F)F)cc3)n2)cc1 [Compound 80] | 50 to 100% | 50 to 100% | 
Cc1ccnc(C)c1NC(=S)N/N=C/c1ccc(-c2ncn(-c3ccc(OC(F)(F)F)cc3)n2)cc1 [Compound 102] | 50 to 100% | 50 to 100% | 
CC(NC(=S)N/N=C/c1ccc(-c2ncn(-c3ccc(OC(F)(F)F)cc3)n2)cc1)c1ccc2c(c1)OCO2 (centres unmarked) [Compound 159] | 50 to 100% | 50 to 100% | 
